The nature of data set [1]: In vitro plasma stability, mouse plasma. Conditions: Table 2; prodrug 10 μM, 60 min incubation at 37° C.; values read as % prodrug remaining.
Data set [2] is described as follows: In vitro plasma stability, human plasma. The note with it: for PLASMA STABILITY Human: Table 2, prodrug 10 μM, 60 min incubation at 37° C., values read as % prodrug remaining.
The nature of data set [3]: In vitro plasma stability, monkey plasma. Conditions: for PLASMA STABILITY Monkey: Table 2, prodrug 10 μM, 60 min incubation at 37° C., values read as % prodrug remaining.
Data set [4] can be described thus: In vitro liver microsomal stability, pig. A general note: Liver microsomes are vesicles of endoplasmic reticulum, rich in cytochrome P450 enzymes.
A short description of data set [5]: In vitro liver microsomal stability, human.
Data set [6] can be described thus: Brain and plasma pharmacokinetics in mice, oral. Type of data set: in vivo, C57BL/6 mice. Conditions: 0.8 mg/kg DON equivalent. As to the method: All pharmacokinetic studies in mice were conducted according to protocol (#M013M113) approved by the Animal Care and Use Committee at Johns Hopkins University. C57BL/6 mice between 25 and 30 g were obtained from Harlan, and maintained on a 12 hour light-dark cycle with ad libitum access to food and water. To evaluate the brain and plasma pharmacokinetics of DON and its prodrug 5c, 8-12 week old C57BL/6 were administered DON (1; 0.8 mg/kg, p.o. in phosphate-buffered saline) and its prodrug 5c (at 0.8 mg/kg equivalent DON (1), p.o. in phosphate-buffered saline with 5% EtOH and 5% Tween-80). The mice were sacrificed by pentobarbital injection at 10, 30 and 90 minutes post drug administration, and blood was collected via cardiac puncture and placed into iced EDTA coated BD microtainers. […]
We have previously published a highly sensitive method for analysis of DON in biological matrices (Alt, et al., 2015). […] The mean predicted […] for back calculated concentrations of the standards and QC's for all analytes were within the range of 85 to 115%, except for the lowest concentration which was within the range of 80 to 120% with an overall accuracy and precision of 6.7% and 6.6% respectively.
Mean concentration-time data was used for pharmacokinetic analysis. […] Area under the curve (AUC) was calculated by log-linear trapezoidal rule to the end of sample collection (AUClast).

The subject of data set [7] is U87 human glioma cells. Kind of data set: U87 flank xenograft mouse model of GBM. Type of data set: in vivo. The note with it: 0.8 mg/kg, i.p.; for GBM tumor growth: q.d. days 1-6. The protocol: All mouse efficacy studies were conducted according to protocol #M013M69 approved by the Animal Care and Use Committee at Johns Hopkins University. Female athymic (RH_Foxn1nu mice) mice between 25 and 30 g were obtained (Harlan Sprague Dawley Inc, Indianapolis, Ind.), and maintained on a 12 hour light-dark cycle with ad libitum access to food and water. U87 human glioma cells were injected s.c. (5×10^6 cells in […] of PBS) in four separate locations on the flanks of each mouse. When tumors grew to a mean volume of around 200 mm^3, mice were randomized into either vehicle (HEPES-buffered saline, i.p.) or DON (1; 0.8 mg/kg, i.p.). In one cohort, mice were administered a single dose of the appropriate solution two hours after which glutamine levels were quantified in the tumor as described previously.^49 In brief, tumors were harvested, snap frozen, and homogenized in liquid N2 then subjected to metabolite extraction using methanol and DI water. Quantification was performed using Agilent 6520 Quadrupole-Time-of-Flight (Q-TOF) mass spectrometer with Agilent 1290 HPLC and using Agilent Mass Hunter and Agilent Qualitative and Quantitative Analysis Software packages. Glutamine content was averaged by group for each individual tumor (n=3-4/group), depicted as relative intensity, and analyzed by one-tailed t test. In a second cohort, efficacy experiments were conducted. Mice were injected once daily for six days; tumor volumes were measured using digital calipers and calculated according to the formula: [volume=(largest tumor dimension)×(smallest tumor dimension)×0.52] at 2, 4, and 6 days after the onset of treatment. Each individual tumor (n=8-10/group) was normalized to its pretreatment volume, averaged and analyzed by repeated measures two-way analysis of variance (ANOVA). If significant, a Bonferroni post hoc test was subsequently applied. Significance was defined as p<0.05.

The subject of data set [8] is EL4 lymphoma. Kind of data set: EL4 mouse lymphoma model. The format is in vivo. The note with it: monotherapy.
The subject of data set [9] is B16 melanoma. Kind of data set: B16 melanoma mouse model. Type of data set: in vivo.
Data set [10] relates to tumor cells. Kind of data set: Oxygen consumption and lactate production of tumor cells. The format is cell-based.
The test system of data set [11] is TILs. Kind of data set: CD8/Treg ratio in the tumor and hypoxia in the TILs. Conditions: in vivo.
For data set [12] the following is noted: cited from earlier work.
Data set [13] is described as follows: Chemical stability of DON esters and prodrugs. Type of data set: physicochemical.
Data set [14] can be described thus: Plasma and CSF pharmacokinetics in swine, i.v. infusion. The note with it: 60 min post-administration. Type of data set: in vivo, Göttingen×Yucutan miniature swine.

Entries after “also recorded” stand apart in the source; their conditions may differ. A value given as a limit tells only on which side of the number the result lay.

The source of these data is US11759444B2, “Methods for cancer and immunotherapy using prodrugs of glutamine analogs” (The Johns Hopkins University, priority 2015, dated 2023).

Consider `CCOC(=O)[C@H](CCC(=O)C=[N+]=[N-])NC(=O)[C@@H](N)Cc1cc2ccccc2[nH]1` [Compound 34], for which the PLASMA STABILITY Mouse in data set [1] was 0%. Moreover, in [2], the PLASMA STABILITY Human worked out at 12%. Further, the PLASMA STABILITY Monkey in [3] was 4%.
As for `CC(C)C[C@H](N)C(=O)N[C@@H](CCC(=O)C=[N+]=[N-])C(=O)OC(C)C` [Compound 9], the PLASMA STABILITY Mouse in data set [1] stood at 0%. Also, the PLASMA STABILITY Human in [2] came to 1%. Moreover, the PLASMA STABILITY Monkey in data set [3] was found to be 1%. The “liver microsomal stability, pig” value in [4] was “moderate-high stability”. The “liver microsomal stability, human” value in data set [5] is reported as “moderate-high stability”.
On to `CC(C)OC(=O)[C@H](CCC(=O)C=[N+]=[N-])NC(=O)[C@@H](N)Cc1c[nH]c2ccccc12` [Compound 38a], for which the “liver microsomal stability, pig” value in [4] is “moderate-high stability”. Also, the “liver microsomal stability, human” value in data set [5] is given as “moderate-high stability”.
In the case of `[N-]=[N+]=CC(=O)CC[C@H](N)C(=O)O` [DON, 6-diazo-5-oxo-L-norleucine], the “AUC0-t of DON in brain” value in data set [6] was 0.57 nmol·h/g. In addition, the “glutamine metabolism in flank GBM tumor (endogenous glutamine accumulation)” value in [7] (2 hours post-administration) is listed as “inhibited glutamine metabolism”. In [7] (q.d.), the “reduction in tumor volume” value is listed as greater than 50% and the weight loss stood at 12±4.1%. Besides, the “GBM tumor growth” value in [7] is recorded as “halted tumor growth, but also effectively induced tumor regression”. Moreover, the “GBM tumor growth” value in [7] (listed as 1) is “dramatic reduction in tumor size”. The signs of toxicity result in [7] (q.d., all mice receiving DON) was “hunching, ptosis, and lethargy”. Further, the “lymphoma tumor growth” value in data set [8] is given as “markedly inhibit lymphoma growth”. Further, the “tumor infiltrating regulatory T cells (Foxp3+)” value in data set [9] (B16 melanoma) is given as “inhibiting tumor infiltrating regulatory T cells”. Besides, in [9] (monotherapy), the “melanoma tumor growth” value is on record as “modest effect”. In addition, in data set [10], the “lactate production of tumor cells” value is “reduces” and the “oxygen consumption of tumor cells” value is reported as “reduces”. In [11], the “CD8/Treg ratio in the tumor” value is recorded as “improved the CD8/Treg ratio” and the “hypoxia in the TILs” value is recorded as “reduces hypoxia in the TILs”. The clinical toxicity result in data set [12] (human, in vivo) was “dose limiting toxicities, many of which were GI-related”. For the same compound, the “regression or stable disease in patients” value in data set [12] (late stage adult patients, children with hematological malignancies or solid tumors) was greater than 50%.
In the case of `CCOC(=O)C(N)CCC(=O)C=[N+]=[N-]` (stereo not drawn) [Compound 2a], the “chemical stability” value in data set [13] is “unstable”.
For `CCOC(=O)[C@H](CCC(=O)C=[N+]=[N-])NC(=O)OCc1oc(=O)oc1C` [Compound 36], the PLASMA STABILITY Mouse in [1] worked out at 0%. Moreover, the PLASMA STABILITY Human in [2] amounted to 0%. The PLASMA STABILITY Monkey in data set [3] was found to be 0%.
Take `CC(C)OC(=O)[C@H](CCC(=O)C=[N+]=[N-])NC(=O)OC(OC(=O)C(C)(C)C)c1ccccc1` (stereo partly drawn) [Compound 47]: in data set [14], the “CSF delivery of DON” value is “substantially higher amounts of DON; also recorded: enhanced CSF delivery of DON” and the “CSF-to-plasma ratio of DON” value is “increased CSF-to-plasma ratios; also recorded: enhanced CSF:plasma ratio of DON”.
For the compound `Cc1oc(=O)oc1COC(=O)N[C@@H](CCC(=O)C=[N+]=[N-])C(=O)OC(C)C` [Compound 13], the PLASMA STABILITY Mouse in data set [1] worked out at 0%. The PLASMA STABILITY Human in [2] was determined as 0%. The PLASMA STABILITY Monkey in [3] is 0%.
Regarding `CCOC(=O)[C@H](CCC(=O)C=[N+]=[N-])NC(=O)OC(C)OC(=O)C(C)(C)C` (stereo partly drawn) [Compound 5b], the “stability in human plasma” value in data set [2] is reported as “stable”. The “stability in monkey plasma” value in data set [3] was “stable”.
With `CC(C)OC(=O)[C@@H]1CCC(C=[N+]=[N-])=N1` [Compound 9b], the “chemical stability” value in data set [13] is “chemically stable even at acidic pH”.
Regarding `CC(C)OC(=O)[C@H](CCC(=O)C=[N+]=[N-])NC(=O)[C@@H](N)Cc1cc2ccccc2[nH]1` [Compound 38], in [1], the PLASMA STABILITY Mouse turned out to be 0%. In data set [2], the PLASMA STABILITY Human came out at 30%. In addition, in data set [3], the PLASMA STABILITY Monkey amounted to 10%.
With `CC(=O)N[C@@H](Cc1c[nH]c2ccccc12)C(=O)N[C@@H](CCC(=O)C=[N+]=[N-])C(=O)OC(C)C` [Compound 60a], the “liver microsomal stability, pig” value in [4] is “moderate-high stability”. Besides, the “liver microsomal stability, human” value in data set [5] is recorded as “moderate-high stability”.
In the case of `CCOC(=O)[C@H](CCC(=O)C=[N+]=[N-])NC(=O)OC(C)OC(=O)C(C)(C)C` (stereo partly drawn) [Compound 32], the PLASMA STABILITY Mouse in data set [1] was 0%. Also, the PLASMA STABILITY Human in data set [2] came out at 88%. The PLASMA STABILITY Monkey in [3] turned out to be 75%.
Consider `CCOC(=O)[C@@H]1CCC(C=[N+]=[N-])=N1` [Compound 9a], for which the “chemical stability” value in data set [13] is listed as “chemically stable even at acidic pH”.
In the case of `CC(C)OC(=O)[C@H](CCC(=O)C=[N+]=[N-])NC(=O)OCOC(=O)C(C)(C)C` [Compound 42], in [1], the PLASMA STABILITY Mouse is 0%. In addition, the PLASMA STABILITY Human in data set [2] amounted to 9%. Further, the PLASMA STABILITY Monkey in [3] was 0%.
Take `CC(C)OC(=O)C(N)CCC(=O)C=[N+]=[N-]` (stereo not drawn) [Compound 2b]: the “chemical stability” value in data set [13] is on record as “unstable”.
